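Tested at 5 concentrations; 48 h exposure; 96-well plates; endpoints linearly interpolated, else capped at highest concentration. GI50 = concentration required for 50% inhibition of growth.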 Activity calls are given as the source filed them. Cut-off read from the data, not from the text of the source: active = GI50 up to about 1.1 µM and inactive = higher.
How the values were obtained:
Test in all cases: NCI tumour cell line growth inhibition, 48 h
[1] = tested on: HCT-15
[2] = tested on: UACC-257
[3] = tested on: SR
[4] = tested on: U-251
[5] = tested on: K562
[6] = tested on: OVCAR-8
[7] = tested on: M14
[8] = tested on: ACHN
[9] = tested on: HOP-92
[10] = tested on: KM12
[11] = tested on: HT-29
[12] = tested on: NCI/ADR-RES
[13] = tested on: SW-620
[14] = tested on: EKVX
[15] = tested on: SK-MEL-28
[16] = tested on: DU-145
[17] = tested on: Malme-3M
[18] = tested on: OVCAR-3
[19] = tested on: BT-549
[20] = tested on: MDA-MB-435
[21] = tested on: NCI-H23
[22] = tested on: CCRF-CEM
[23] = tested on: 786-0
[24] = tested on: SF-268
[25] = tested on: SF-295
[26] = tested on: NCI-H226
[27] = tested on: MDA-N
[28] = tested on: NCI-H460
[29] = tested on: SN12C
[30] = tested on: SNB-19
[31] = tested on: RPMI-8226
[32] = tested on: MOLT-4
[33] = tested on: HOP-62
[34] = tested on: SF-539
[35] = tested on: UO-31
[36] = tested on: A498
[37] = tested on: A549
[38] = tested on: HCT-116
[39] = tested on: TK-10
[40] = tested on: MCF7
[41] = tested on: HL-60
[42] = tested on: RXF 393
[43] = tested on: OVCAR-5
[44] = tested on: COLO 205
[45] = tested on: PC-3
[46] = tested on: SNB-75
[47] = tested on: HCC 2998
[48] = tested on: SK-OV-3
[49] = tested on: SK-MEL-5
[50] = tested on: T47D
[51] = tested on: SK-MEL-2
[52] = tested on: IGROV-1
[53] = tested on: CAKI-1
[54] = tested on: LOX IMVI
[55] = tested on: UACC-62
[56] = tested on: MDA-MB-231
[57] = tested on: OVCAR-4
[58] = tested on: NCI-H522

Measured: GI50

Cc1cc(C)c(N[S+]([O-])c2cccc(Cl)c2)c(C)c1 (stereo not drawn)
inactive: [2] > 100 µM | [3] > 100 µM | [4] > 100 µM | [5] > 100 µM | [6] > 100 µM | [7] > 100 µM | [8] > 100 µM | [9] > 100 µM | [10] > 100 µM | [11] > 100 µM | [12] > 100 µM | [13] > 100 µM | [14] > 100 µM | [15] > 100 µM | [16] > 100 µM | [17] > 100 µM | [18] > 100 µM | [19] > 100 µM | [20] > 100 µM | [21] > 100 µM | [22] > 100 µM | [23] > 100 µM | [24] > 100 µM | [25] > 100 µM | [26] > 100 µM | [27] > 100 µM | [28] > 100 µM | [29] > 100 µM | [30] > 100 µM | [31] > 100 µM | [32] > 100 µM | [33] > 100 µM | [34] > 100 µM | [35] > 100 µM | [36] 29.2 µM | [37] > 100 µM | [38] > 100 µM | [39] > 100 µM | [40] > 100 µM | [41] > 100 µM | [42] > 100 µM | [43] > 100 µM | [44] > 100 µM | [45] > 100 µM
> 100 µM: [1]

CO/C(N)=C(C#N)/N=C/c1cccnc1
> 100 µM: [1]
inactive: [2] > 100 µM | [4] > 100 µM | [5] > 100 µM | [6] > 100 µM | [7] > 100 µM | [9] > 100 µM | [10] > 100 µM | [11] > 100 µM | [12] > 100 µM | [13] > 100 µM | [14] > 100 µM | [15] > 100 µM | [46] > 100 µM | [16] > 100 µM | [17] > 100 µM | [18] > 100 µM | [47] > 100 µM | [19] > 100 µM | [20] > 100 µM | [21] > 100 µM | [22] 35.8 µM | [48] > 100 µM | [49] > 100 µM | [50] > 100 µM | [23] > 100 µM | [51] > 100 µM | [24] > 100 µM | [25] > 100 µM | [26] > 100 µM | [52] > 100 µM | [53] 71.9 µM | [54] > 100 µM | [27] > 100 µM | [55] > 100 µM | [29] > 100 µM | [56] > 100 µM | [31] > 100 µM | [32] > 100 µM | [33] > 100 µM | [34] > 100 µM | [57] > 100 µM | [36] > 100 µM | [37] > 100 µM | [38] > 100 µM | [39] > 100 µM | [40] > 100 µM | [41] > 100 µM | [42] > 100 µM | [43] > 100 µM | [44] > 100 µM | [45] > 100 µM

O=C1C2=Cc3ccccc3OC2(O)Oc2ccccc21 (stereo not drawn)
> 100 µM: [1]
inactive: [2] > 100 µM | [3] > 100 µM | [4] > 100 µM | [5] 57.8 µM | [6] > 100 µM | [7] > 100 µM | [9] > 100 µM | [10] > 100 µM | [11] > 100 µM | [12] > 100 µM | [13] > 100 µM | [14] > 100 µM | [15] > 100 µM | [46] 52.2 µM | [16] > 100 µM | [17] > 100 µM | [18] 91.2 µM | [47] > 100 µM | [20] > 100 µM | [21] > 100 µM | [22] > 100 µM | [48] > 100 µM | [49] > 100 µM | [50] > 100 µM | [23] > 100 µM | [51] > 100 µM | [24] > 100 µM | [25] > 100 µM | [26] > 100 µM | [52] > 100 µM | [53] > 100 µM | [54] > 100 µM | [27] > 100 µM | [55] > 100 µM | [29] > 100 µM | [56] > 100 µM | [31] > 100 µM | [32] > 100 µM | [33] > 100 µM | [34] > 100 µM | [57] > 100 µM | [36] > 100 µM | [37] > 100 µM | [38] > 100 µM | [39] > 100 µM | [40] > 100 µM | [42] > 100 µM | [43] > 100 µM | [44] > 100 µM | [45] > 100 µM

C=CCOCC1C2CCC3(OCCO3)C21 (stereo not drawn)
inactive: [2] > 100 µM | [3] > 100 µM | [4] > 100 µM | [5] 46.9 µM | [6] > 100 µM | [7] > 100 µM | [8] > 100 µM | [9] > 100 µM | [10] > 100 µM | [11] > 100 µM | [12] > 100 µM | [13] > 100 µM | [14] > 100 µM | [15] > 100 µM | [46] > 100 µM | [16] > 100 µM | [17] > 100 µM | [18] > 100 µM | [47] > 100 µM | [19] > 100 µM | [20] > 100 µM | [21] 48.5 µM | [22] 99.5 µM | [48] > 100 µM | [49] > 100 µM | [23] > 100 µM | [51] > 100 µM | [24] > 100 µM | [25] > 100 µM | [26] > 100 µM | [52] > 100 µM | [53] 30.4 µM | [54] > 100 µM | [27] > 100 µM | [55] 30.1 µM | [28] > 100 µM | [29] > 100 µM | [56] > 100 µM | [58] > 100 µM | [30] > 100 µM | [31] > 100 µM | [32] > 100 µM | [33] > 100 µM | [34] > 100 µM | [35] 19.1 µM | [57] > 100 µM | [37] > 100 µM | [38] > 100 µM | [39] > 100 µM | [40] > 100 µM | [42] > 100 µM | [43] > 100 µM | [44] > 100 µM | [45] > 100 µM
> 100 µM: [1]

Reference: ChEMBL document CHEMBL1201862, “PubChem BioAssay data set” (2004)
